Data from paper PMC12844124, “Synthesis and Study of Substituted Chalcones Combined with Fluoroazobenzenes—New Photoswitches for Application in Biological Systems” (Molecules, 2026).

Assays:
BJ fibroblasts = assay: MTS cell proliferation assay, BJ fibroblasts; format: cell-based, human; conditions: for IC50: Homo sapiens, Fibroblast
Method: Human BJ fibroblasts (American Type Cell Culture Collection, Manassas, VA, USA, CRL-2522) and human prostate cancer cell line PC-3 (American Type Cell Culture Collection, Manassas, VA, USA, CRL-1435), derived from bone metastases, were routinely grown in […]) Medium (ThermoFisher, Waltham, MA, USA, 21127-022) and supplemented with heat-inactivated 10% Fetal Bovine Serum (Biowest, France, […]) and 1% antibiotic solution (Biowest, Nuaillé, France, L0022), in a humidified 5% CO2 atmosphere at 37 °C. Cells were used between 3 and 20 passages. The 96-well plates were prepared by seeding 5 × 10^3 or 2.5 × 10^3 cells per well, for 24 and 48 h treatments, respectively, with at least five technical and two biological repeats. […] The cells were treated with either the Z conformer of 17j, with continuous illumination with 525 nm light, or the E conformer. The Z conformer was prepared by illuminating its DMSO solution with 525 nm light overnight. The cell proliferation was analyzed with CellTiter Aqueous One Solution Cell Proliferation MTS (3-(4,5-dimethylthiazol-2-yl)-5-(3-carboxymethoxyphenyl)-2-(4-sulfophenyl)-2H-tetrazolium) Assay (Promega, Madison, WI, USA, G5430) after 24 or 48 h of treatment. The absorbance was measured at 490 and 670 nm with FLUOStar Omega plate reader (BMG LABTECH GmbH, Ortenberg, Germany). The statistical analysis was performed within R 4.5.1 project. […] The log-logistic four parametric model (4PL), with the lower limit boundary set to 0 and group fitting, was used, as available in the drc package, to fit cell proliferation data. The residuals were checked for normality with QQ and density plots and considered as sufficiently normally distributed. The assessment metrics for model goodness of fit were performed with functions available in the drc package and with custom ones. When appropriate, the delta method was applied to obtain error of central tendency. To assess the goodness of fit for each of the biological replicates, deviance R^2 (DR^2) was calculated and assessed. […] The DR^2 was calculated according to the following Equation: 1 - (Dres/Dnull), where Dres-residual deviance and Dnull-null deviance (deviance of the model with mean as a predicted value). The null hypothesis was assessed with the two-way ANOVA with Tukey's post hoc test for multiple comparisons or with the two-way t-test when only two groups were compared. The differences in the cell cycle percentages were assessed with the two-way ANOVA with Tukey's post hoc test.

[1] = Photostationary state (PSS) composition by 19F NMR; format: physicochemical; conditions: irradiation 525 nm, DMSO-d6
Source text: Azo compounds have been applied in various fields due to their ability to undergo structural changes, with one of the most interesting applications being the direct conversion of light into mechanical energy. However, azobenzenes generally face two main limitations that hinder their practical use in biological and materials sciences. The first is the need for UV light to induce the E→Z isomerization through π→π* excitation, which can potentially interfere with and damage the surrounding environment. The second limitation is the typically incomplete reverse Z→E photoisomerization, which is induced by irradiation in the visible region. In this region, the n→π* bands of the E and Z isomers largely overlap, making it difficult to achieve E-rich photostationary states (PSSs) after back-switching. These limitations can be overcome by modifying azobenzene in such a way that the n→π* bands of the E and Z isomers are sufficiently separated. If the separation is large enough, the two n→π* bands can be distinct, allowing visible light to selectively isomerize both isomers with high to complete E/Z photoconversions. We are looking for switches that operate within the visible light range of 380–750 nm, which is harmless. Fluorine-substituted azobenzenes are well-suited for designing visible-light-responsive systems, offering stable and bidirectional photoconversions along with tissue-compatible properties. We confirmed that the compounds we synthesized successfully dock with tubulin. In the next step, we tested whether the added azo compound would meet our expectations as a visible light switch. For this purpose, we used NMR spectroscopy. We measured ^19F spectra of (17a–17c, 17e–17g, and 17i–17l) at nine wavelengths from 390 nm to 610 nm to check which wavelengths produce the most Z isomer after exposure (see Section S4.2 in Supplementary Materials). We selected DMSO as the solvent due to its ability to dissolve both polar and nonpolar molecules, which is essential for the analytical methods employed in this study. Its intermediate polarity also makes it a good surrogate for both organic and aqueous solvents. Additionally, DMSO is commonly used for preparing stock solutions, which are then illuminated and diluted into aqueous systems for assessing biological activity. […]
Figure 2 (a) Photostationary state (PSS) compositions for chalcones (17a–17c, 17e–17g, and 17i–17l) determined by ^19F NMR analysis (c ≈ 100 mM in DMSO-d6), presented in a bar chart; (b) representative multiple photoswitching rounds of 60 µM of (17j) in DMSO by pulsed green (525 nm) and blue (430 nm) light illumination. The photochemical stability of the drug is analyzed via repeated cycles of irradiation (software: Microsoft Excel).

SMILES: COc1cc(/C=C/C(=O)c2cccc(/N=N/c3c(F)cccc3F)c2)cc(OC)c1 [Compound 17j]
- growth inhibition (normalized asymptote) (BJ fibroblasts; E conformer, 48 h): 5.3 ± 1.2%
- IC50 (BJ fibroblasts; 24 h, E conformer, 24 h treatment): 6.59 ± 0.38 µM
- IC50 (BJ fibroblasts; 24 h, Z conformer, 24 h treatment): 10.1 ± 1.4 µM
- IC50 (BJ fibroblasts; 48 h, E conformer, 48 h treatment): 2.66 ± 0.15 µM
- IC50 (BJ fibroblasts; 48 h, Z conformer, 48 h treatment): 4.02 ± 0.39 µM
- growth inhibition (normalized asymptote) (BJ fibroblasts; Z conformer, 24 h): 18.7 ± 9.7%
- growth inhibition (normalized asymptote) (BJ fibroblasts; Z conformer, 48 h): 13.3 ± 6.1%
- share of the Z configuration (PSS) [1]: 73.2%
